The values below come from paper PMC8945721, “Sulphoraphane Affinity-Based Chromatography for the Purification of Myrosinase from Lepidium sativum Seeds” (Biomolecules, 2022).

This experiment has as its system T1, myrosinase from Lepidium sativum seeds.
T1 construct: gene beta-thioglucoside glucohydrolase
Put plainly: glucose release, glucose oxidase-peroxidase coupled assay, Michaelis-Menten fit. The experiment is classed as biochemical. Particulars: pH 6.0, 37 °C, 100 μM L-ascorbic acid; read-out: KM (×10^-3 mol/L). The text has this:
glucose release, glucose oxidase-peroxidase coupled assay, Michaelis-Menten fit on myrosinase from Lepidium sativum seeds

In the case of `C=CC/C(=N/OS(=O)(=O)O)S[C@@H]1O[C@H](CO)[C@@H](O)[C@H](O)[C@H]1O` [Sinigrin], the Km worked out at 574 ± 237 µM.

On to `O=S(=O)(O)O/N=C(/Cc1ccc(O)cc1)S[C@@H]1O[C@H](CO)[C@@H](O)[C@H](O)[C@H]1O` [Sinalbin], for which the Km was found to be 632 ± 235 µM.

Take `C[S+]([O-])CCCC/C(=N/OS(=O)(=O)O)S[C@@H]1O[C@H](CO)[C@@H](O)[C@H](O)[C@H]1O` (stereo partly drawn) [Glucoraphanin]: the Km is 1130 ± 256 µM.
